Data as given in US20260223838A1, “ANTIMICROBIAL MASTERBATCHES AND POWDERS COMPRISING A SYNERGISTIC BLEND OF COMPONENTS” (priority 2023, published 2026).

test system: E. coli (ATCC 8739); assay: Zone of Inhibition (ZOI) of pressed powder pellets; settings: against E. coli after 24 h incubation at 37° C.
Procedure: Zone of Inhibition (ZOI). […] The cultures were streaked on Luria Agar (LB) plates and incubated overnight at 37° C. […] 50 μL of this stock suspension was spread homogeneously on a trypticase soy agar (TSA) plate (diameter 10 cm).

Question: For `[O]=[Mo](=[O])=[O]` [molybdenum oxide, molybdenum (VI) oxide], which “diameter of the ZOI” value is on record?
Answer: 19 mm

Question: With Zinc borate as the molecule, how does the “diameter of the ZOI” value read?
Answer: No ZOI

Question: How did the “diameter of the ZOI” value turn out when basic copper (II) carbonate [BCC] was run?
Answer: 12 mm
